US20220213082A1, “PRODRUG OF CASPASE INHIBITOR” (LG CHEM, LTD., priority 2019, published 2022)

Tested on: recombinant human carboxylesterases (CE1b, CE1c and CE2)
Test: Hydrolysis test by hydrolase (recombinant human carboxylesterases)
Type: in vitro ADME
Description: Various recombinant human carboxylesterases (CE1b, CE1c and CE2) were prepared in order to confirm the hydrolysis tendency of the prodrug by carboxylesterase (CE) which is a hydrolase. The initial enzyme concentration provided by the manufacturer was 5 mg/mL, which was diluted 1/50 in 100 mM potassium phosphate buffer to obtain a protein solution of 100 μg/mL. For the compound of Example 1—which is a prodrug compound to be tested, 5 mg/mL DMSO stock was used as a working solution, which was diluted 1/100 in acetonitrile to obtain 50 μg/mL concentration solution, and again diluted to a concentration of 1/100 in 100 mM potassium phosphate buffer to obtain a drug solution with a final concentration of 500 ng/mL. […] The samples were deproteinized with acetonitrile containing an internal standard (IS) and centrifuged, and the supernatant was injected into LC-MS/MS for analysis. By correcting the obtained peak area of the prodrug with the peak area of IS, the peak response at the time of collection of each sample was obtained, and the residual ratio (% remaining) compared to the initial value was converted. […]
Such result is analyzed that the compound of Example 1 was hydrolyzed by an esterase present in the reaction system and converted into a compound of Formula 2, which is the parent drug.

contribution of each human recombinant CE isozyme to hydrolysis into compound of Formula 2 (CE1b, CE1c, CE2 compared): greater by CE1b and CE1c than by CE2
residual ratio (% remaining) of prodrug (spiked with human recombinant CE isozyme, after reaction for 60 minutes, LC-MS/MS): most of the prodrug was lost
Compound: CC(=O)O[C@]1(CF)OC(=O)C[C@@H]1NC(=O)[C@]1(C(C)C)CC(c2nccc3ccccc23)=NO1 [Example 1, (2S,3S)-2-(fluoromethyl)-3-((R)-5-isopropyl-3-(isoquinolin-1-yl)-4,5-dihydroisoxazole-5-carboxamido)-5-oxotetrahydrofuran-2-yl acetate]
